What was measured:
[1] = molecular target: T1, Human CCR3 (Homo sapiens, UniProt P51677); experiment: Receptor binding assay (RBA), [125I]-eotaxin; conditions: human CCR3-transformed K562 cells, 0.1 nM [125I]-eotaxin; compounds of about 40 to 90% purity; read-out: Activity grade RBA (IC50 class)
T1 construct: The cloned CCR3 cDNA was constructed with pcDNA3 vector and transfected into a IC562 cell line; expressed in transfected cells
T1 sequence (P51677 1-355): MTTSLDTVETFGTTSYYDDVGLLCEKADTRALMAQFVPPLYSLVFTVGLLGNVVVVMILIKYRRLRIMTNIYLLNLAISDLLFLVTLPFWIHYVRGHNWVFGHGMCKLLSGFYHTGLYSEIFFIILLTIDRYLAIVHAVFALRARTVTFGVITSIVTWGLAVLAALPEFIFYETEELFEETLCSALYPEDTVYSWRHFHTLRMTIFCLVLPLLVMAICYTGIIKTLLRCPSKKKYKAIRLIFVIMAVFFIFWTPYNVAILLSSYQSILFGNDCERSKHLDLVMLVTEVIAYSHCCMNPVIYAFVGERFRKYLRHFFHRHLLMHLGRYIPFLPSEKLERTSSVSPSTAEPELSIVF
Outline: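 Butyrate-pretreated (5 mM, 20-24 h) CCR3-transfected K562 cells incubated 1 h at room temperature with compound and 0.1 nM final [125I]-eotaxin in HEPES pH 7.6 buffer; bound radioactivity counted after filtration. Non-specific binding with 500 nM unlabeled eotaxin; IC50 from inhibition curve.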

- IC50 [1]: < 1 µM
- melting point: 191 to 192 °C
Compound: O=[N+]([O-])c1ccc(Sc2cc(Cl)cc(Cl)c2)c(S(=O)(=O)N2CCC(N3CCCCC3)CC2)c1 [Example 2-3]

From US8242118B2, “Arylsulfonamide derivatives for use as CCR3 antagonists in the treatment of inflammatory and immunological disorders” (Axikin Pharmaceuticals Inc., priority 2001, dated 2012)
